Experiment [1] has as its system Bad. In words: Western blot of Bad in ARPE-19 cells under TNFα/H2O2. The experiment is classed as cell-based, human. Particulars: 50 nM; similar conditions (800 μM H2O2 with TNFα). Here is the method: Analysis of pro- and anti-apoptotic proteins in ARPE-19 cells: Bcl-2 family proteins were analyzed by Western-blot analysis. In brief, 20-μg equivalents of each cell extract were subjected to electrophoresis on a 8-16% gel (Promega, Madison, Wis.) at 125 volts for 2 h. The proteins were transferred to nitrocellulose membrane at 30 volts for 1 h at 4° C. The membranes were subjected to treatment with primary antibodies of Bcl-2, Bcl-xL, Bax, and Bad for 1 h at room temperature, and probed 30 min with secondary antibody, goat anti-rabbit Ig:HRPO and HRP-conjugated anti-biotin antibody. (BD Sciences—Pharminogen, San Diego, Calif.) Then proteins were evaluated using an ECL kit. (Amersham Biosciences Corp., Piscataway, N.J.)
Using the same TNFα/H2O2 concentrations, Bcl-2 proteins were assayed. Cells were grown for 72 h after plating, placed in serum-free medium for 1 h, then incubated with TNFα/H2O2 for 6 h. Protein expression and Western-blot analysis were performed as described in Example 13. Data in FIGS. 14A, 14B, 14C and 14D represent four independent experiments with triplicate samples in each case. Anti-apoptotic protein Bcl-xL was enhanced in ARPE-19 cells by TNFα/H2O2 (800 μM) (FIG. 14B, first bar), whereas Bcl-2 was not changed (FIG. 14A, first bar).
A general note: In western blotting, separated proteins are transferred to a membrane and probed.

In experiment [2] the test system is polymorphonuclear leukocyte infiltration (myeloperoxidase activity). The experiment can be described thus: Myeloperoxidase (MPO) activity assay in hippocampus and neocortex after MCA-O and reperfusion. It is filed as in vivo, mouse. Particulars: 0.4 μg over 48 h cerebroventricular perfusion; 1 h MCA-O, 48 h reperfusion. Here is the method:
Middle Cerebral Artery Occlusion (MCA-O) and reperfusion. Experimental protocols were reviewed and approved by the Institutional Animal Care and Use Committee of Louisiana State University Health Sciences Center, New Orleans. Mice (20-25 g body wt) were induced with 2% isoflurane in a mixture of 70% nitrous oxide and 30% oxygen. Anesthesia was maintained with 1% isoflurane. Temperature was maintained at 36.5-37.5° C. using a Harvard homeothermic blanket. P 10 polyethylene catheters were placed in the femoral artery and vein, and the blood pressure was monitored. Arterial blood was analyzed for PO2, PCO2, and pH after 1 h of ischemia and 30 min after the onset of reperfusion. The common carotid and external carotid arteries were temporarily ligated with a retracting suture, and the external carotid artery was dissected just proximal to its bifurcation. The occluding filament was introduced from the external carotid artery and advanced to the internal carotid artery. The AVM micro clip was removed. The filament was advanced so that the blunted tip lay in the anterior cerebral artery and the side of the filament occluded the origin of the middle cerebral artery (MCA). The stump of the external carotid artery was ligated, and tension on the retracting suture to the common carotid artery was gently released, restoring blood flow to the carotid system.
Occlusion of the middle cerebral artery (MCA-O) was maintained for 1 h; reperfusion was then established by delicate retrieval of the occluding suture from the arterial lumen, restoring blood flow to the region of the MCA. The mice were then killed, and the hippocampus and brain cortex rapidly dissected and frozen. Samples were kept at −80° C. until analysis. In some experiments, aspirin (7.5 mg/kg) was administered by gavage 15 min before MCA-O.
Polymorphonuclear leukocyte infiltration measurement by the myeloperoxidase (MPO) assay. Inhibition of leukocyte infiltration by 10,17S-docosatriene (NPD1) or docosahexaenoic acid (DHA) was measured in mouse hippocampus and neocortex after 1 h of middle cerebral artery occlusion (MCA-O) and 48 h of reperfusion. Lipids were delivered for each experiment by perfusion (250 nl/h) through Alzet minipumps implanted into the third ventricle. Hippocampus and neocortex from the ipsilateral (MCA-O-reperfusion) and contralateral sides were rapidly dissected. Brain samples were assayed for myeloperoxidase activity as described in Huang, J., Choudhri, T. F., Winfree, C. J., McTaggart, R. A., Kiss, S., Mocco, J., Kim, L. J., Protopsaltis, T. S., Zhang, Y., Pinsky, D. J., and Connolly Jr., E. S. (2000) Stroke 31, 3047-3053. Briefly, brain tissues were homogenized in 10 mM phosphate buffer (pH 7.4), then frozen and thawed with liquid N2 followed by sonication. Samples were precipitated at 10,000×g for 10 min, then aliquots of supernatants were added to 10 mM phosphate buffer (pH 6.0) and a substrate solution containing o-dianisidine (Sigma; St. Louis, Mo.) and 0.025% hydrogen peroxide, and finally incubated at 37° C. for 45 min. Spectrophotometric detection was obtained at 460 nm.

For experiment [3], the system named is ARPE-19 cells. The experiment can be described thus: A2E-induced apoptosis in ARPE-19 cells (Hoechst staining). It is filed as cell-based, human. Particulars: A2E up to 200 μM. Here is the method: To test the ability of NPD1 to inhibit A2E oxidative stress, ARPE-19 cells grown in 6-well plates were transfected by Fugene 6 with NF-κB promoter sequence linked to a luciferase reporter gene and with IκB-EGFP. Promoterless β-galactosidase was co-transfected in ARPE-19 cells to determine the transfection efficiency. Four hours after transfection, cells were washed and further incubated 8 to 10 h before adding inducers. Two different set of cells were used. One set of cells was serum-starved 5 h before the addition of A2E and TNF-α/H2O2, and further incubated for 20-24 h before harvesting. The other set of cells was not serum-starved or further incubated. Luciferase activity was measured. The IκB-EGFP probe was measured by fluorescence confocal microscopy, and Hoechst-positive cells were identified.

Experiment [4] relates to Bcl-2 protein. The experiment can be described thus: Western analysis of Bcl-2 in HN cells. Particulars: 50 nM, p<0.05. The experiment is classed as cell-based, human. Here is the method:
Western Analysis. Total protein was extracted, and 25 μg of protein was analyzed by Western blots using human Bcl-2, Bfl-1 (A1) and actin antibodies. […] Human specific anti-Bfl-1(A1)[Cat. No. sc-8351] was obtained from Santa Cruz Biotechnology (Santa Cruz, Calif.). For Western analysis, signal-intensity data were gathered by phosphorimaging onto molecular imaging screens (FUJIFILM) for 3-36 h using a Typhoon Molecular Imager system (Amersham Biosciences) as described in Bazan and Lukiw, 2002.
To confirm the above changes in Bcl-2 and Bfl-1(A1), Western analysis was performed using anti-Bcl-2, anti-Bfl-1(A1), and anti-actin primary antibodies (B3170 Sigma Life Science, sc-8351 Santa Cruz, and A2103 Sigma, respectively). The results of the Western analysis confirm up-regulation of Bcl-2 and Bfl-1(A1) anti-apoptotic proteins over actin controls in DHA- and NPD1-treated cells.

On to `CC/C=C\C[C@H](O)\C=C/C=C/C=C/[C@H](O)C/C=C\C/C=C\CCC(=O)O` [NPD1, 10,17S-docosatriene], for which the “decrease of oxidative stress-increased Bad” value in experiment [1] is on record as 52%. For the same compound, in experiment [2], the “inhibition of ipsilateral myeloperoxidase activity, cortex” value is listed as 99% and the “inhibition of ipsilateral myeloperoxidase activity, hippocampus” value was 80%. The “effect on A2E-induced apoptosis” value in experiment [3] is listed as “inhibited”. Besides, the “Bcl-2 protein increase over controls, normalized with actin” value in experiment [4] turned out to be 2.3 fold.
